# Biological target: T1, full-length human TLR8 (Homo sapiens, UniProt Q9NR97)
# T1 construct: a stably co-transfected cell line which expresses full-length human TLR8; host or cells: TLR8/NF-κB/SEAPorter HEK 293 Cell Line
# T1 sequence (Q9NR97 27-1041): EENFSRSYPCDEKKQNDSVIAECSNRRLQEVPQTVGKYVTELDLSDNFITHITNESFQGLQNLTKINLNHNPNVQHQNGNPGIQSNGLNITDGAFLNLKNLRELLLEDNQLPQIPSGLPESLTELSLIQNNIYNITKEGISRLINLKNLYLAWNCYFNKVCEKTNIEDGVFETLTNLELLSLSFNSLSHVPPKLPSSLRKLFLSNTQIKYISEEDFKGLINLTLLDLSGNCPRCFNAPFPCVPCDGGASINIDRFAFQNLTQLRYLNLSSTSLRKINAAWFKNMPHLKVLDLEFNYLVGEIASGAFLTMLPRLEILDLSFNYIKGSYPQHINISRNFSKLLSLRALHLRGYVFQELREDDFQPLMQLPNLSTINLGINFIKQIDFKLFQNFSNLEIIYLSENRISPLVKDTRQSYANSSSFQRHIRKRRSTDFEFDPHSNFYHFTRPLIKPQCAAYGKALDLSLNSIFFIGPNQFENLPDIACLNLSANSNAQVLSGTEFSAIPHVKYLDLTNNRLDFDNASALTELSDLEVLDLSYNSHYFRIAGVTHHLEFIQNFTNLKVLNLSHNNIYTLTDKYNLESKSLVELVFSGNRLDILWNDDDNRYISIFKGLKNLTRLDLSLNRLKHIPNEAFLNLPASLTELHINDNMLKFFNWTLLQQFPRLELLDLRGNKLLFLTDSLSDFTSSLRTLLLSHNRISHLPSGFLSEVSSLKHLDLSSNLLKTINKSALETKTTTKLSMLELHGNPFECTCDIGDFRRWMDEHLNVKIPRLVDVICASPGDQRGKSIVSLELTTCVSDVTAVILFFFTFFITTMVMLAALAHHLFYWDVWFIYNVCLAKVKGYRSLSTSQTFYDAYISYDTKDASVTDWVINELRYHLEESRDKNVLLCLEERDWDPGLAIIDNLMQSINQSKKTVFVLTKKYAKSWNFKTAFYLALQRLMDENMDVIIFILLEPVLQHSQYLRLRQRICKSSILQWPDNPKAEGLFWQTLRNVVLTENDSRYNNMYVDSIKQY
# Assay: Human TLR8 assay (TLR8/NF-κB/SEAPorter HEK 293 cell line)
# Format: cell-based
# Details: TLR8 activation, SEAP induction, HEK 293 reporter cells, overnight incubation at 37° C., 0.1% DMSO
# Excerpt: TLR8/NF-κB/SEAPorter™ HEK 293 Cell Line (Imgenex Corporation) is a stably co-transfected cell line which expresses full-length human TLR8 and the secreted alkaline phosphatase (SEAP) reporter gene under the transcriptional control of an NF-κB response element. TLR8 expression in this cell line has been tested by flow cytometry. Transfectants with stable expression were selected using the antibiotic blasticidin and geneticin. TLR signaling leads to the translocation of NF-κB and activation of the promoter results in expression of the SEAP gene. TLR8-specific activation was assessed by determining the level of SEAP produced following overnight incubation of the cells at 37° C. with the standard compound in the presence of 0.1% (v/v) dimethylsulfoxide (DMSO). Concentration dependent induction of SEAP production by compounds was expressed as the concentration of compound which produced half of the maximal level of SEAP induction for that compound (EC50).
row,Structure (SMILES),EC50 [µM]
1,"CCCCNc1nc(N)nc(C)c1Cc1ccc(N2CCN(C)CC2=O)cc1OC [Example 1, 1-(4-{[2-Amino-4-(butylamino)-6-methylpyrimidin-5-yl]methyl}-3-methoxyphenyl)-4-methylpiperazin-2-one]",> 10
2,"CCCCCNc1nc(N)nc(C)c1Cc1ccc(N2CCN(C)CC2=O)cc1OC [Example 2, 1-(4-{[2-Amino-4-methyl-6-(pentylamino)pyrimidin-5-yl]methyl}-3-methoxyphenyl)-4-methylpiperazin-2-one]",> 10
3,"CCC[C@@H](CCO)Nc1nc(N)nc(C)c1Cc1ccc(N2CCN(C)CC2=O)cc1OC [Example 3, (S)-1-(4-{[2-Amino-4-(1-hydroxyhexan-3-ylamino)-6-methylpyrimidin-5-yl]methyl}-3-methoxyphenyl)-4-methylpiperazin-2-one]",6.31
4,"CCC[C@@H](CO)Nc1nc(N)nc(C)c1Cc1ccc(N2CCN(C)CC2=O)cc1OC [Example 4, (S)-1-(4-{[2-Amino-4-(1-hydroxypentan-2-ylamino)-6-methylpyrimidin-5-yl]methyl}-3-methoxyphenyl)-4-methylpiperazin-2-one]",5.01
5,"CCC[C@@H](CCO)Nc1nc(N)nc(C)c1Cc1ccc(N2CCNCC2=O)cc1OC [Example 5, (S)-1-(4-{[2-Amino-4-(1-hydroxyhexan-3-ylamino)-6-methylpyrimidin-5-yl]methyl}-3-methoxyphenyl)piperazin-2-one]",> 10

# — patent US20130267532A1, “CYCLIC AMIDE COMPOUNDS AND THEIR USE IN THE TREATMENT OF DISEASE” (priority 2010, published 2013)
